Source: patent US5658886A, “Acridinone derivative, compositions containing same and a method for using same to treat Chlamydia trachomatis” (Limited Liability Partnership "POLYSAN", priority 1993, dated 1997)
Structures can show the parent of a compound that is named as a salt. Where two headings read alike, the source gives them in different places.

Key:
in vivo = settings: mouse, in vivo
Procedure: (§1) Intravenous and intramuscular injections were given of 2000 mg/kg and less in two stages. The follow-up period was 14 days. The lethal dose (LD50) was calculated by the Kerber technique. […] 31, 1987.

[1] = test system: ristal-strain mongrel white mice; assay: in vivo
Procedure: as §1

interferon = assay: Interferon-inducing activity in mice (titers in blood); type: in vivo, BALB mice; settings: for Interferon titer: dose (mg/kg): cycloferone 200, thylorone 50, prototype 400-600
Procedure: At predetermined time intervals interferon titers were measured in the blood by conventional techniques on homologous cells […] grown in 96-well plates in a CO2 -containing incubator. The test-virus was the encephalomyocarditis virus.

[2] = test system: human immunodeficiency virus (HIV); settings: 0.08 mg/ml
Procedure: The cells were grown at the Russian Medical University (RMU) in tube medium--1640 containing 20% calf foetal serum at end concentration of 0.5-0.7×10^6 cells/ml. […] The cells were then incubated for 3-4 days at 37° C. with subsequent replacement of nutrient medium. On the fifth and seventh day after infection, the presence of virus-specific antigen was established through indirect immunofluorescence assay using anti-HIV antibodies.

C trachomatis = settings: 100 mg/kg daily for 5 days
Procedure: Experiments were performed involving C trachomatis infection of non-line whim mice weighing 16-18 grams. […] Alternatively, a single tetracycline hydrochloride injection (100 mg/kg) was administered on conventional schedule for 5 days.
Therapeutic effectiveness was evaluated by cytoscopic examination of stained smears from lymph nodes and the lung for pathogenic multiplication.

Splenocytes = assay: Interferon induction in cell culture, splenocytes; type: cell-based, BALB mice
From the text: (§2) The initial concentration was 5×10^6 cells/milliliter. The dynamics of interferon accumulation were studied in the cultural fluid of the lymphocytes grown on plastic plates in the presence of CO2.

[3] = test system: Peripheral-blood lymphocytes; assay: Interferon induction in cell culture, peripheral-blood lymphocytes; type: cell-based, BALB mice
From the text: as §2

T-lymphocytes = assay: Interferon induction in cell culture, T-lymphocytes; type: cell-based, BALB mice
From the text: as §2

B-lymphocytes = assay: Interferon induction in cell culture, B-lymphocytes; type: cell-based, BALB mice
From the text: as §2

hepatocytes (liver) = assay: Anti-promotive activity: hepatocytic cohesion; type: in vivo, BALB/c mice
Procedure: Studies were performed on female BALB/c mice weighing 25.0 grams.
The compounds were administered daily for 6 days in optimal doses. Controls were given physiological solution. Six hours after the last injection the animals were sacrificed. Sections of the lung and liver were cut out, submerged in 199 medium, and cellular cohesion was measured. Measurements were performed with a micro-manipulator by modified Kuman technique. See Modianova E. A., Voprosy onkologii, 19(6): 83-88 (1973).
For each experimental point, cellular cohesion was measured in 4-5 mice. One tissue segment from each of the mice measuring 10-30 cells was examined.

CN(C)CCOC(=O)Cn1c2ccccc2c(=O)c2ccccc21 [10-carboxymethyl-9-acridone dimethyl-aminoethylether chlorhydrate]
LD50 at 336 h (in vivo; im): 600 mg/kg
LD50 at 336 h (in vivo; iv): 400 mg/kg
toxicity upon parenteral application ([1]; parenteral): low-toxicity
level of toxicity compared to the compound of the present invention ([1]; words, vs cycloferone): same level of toxicity
Interferon titer (interferon; 2 hours): 100 IU/ml
Interferon titer (interferon; 4 hours): 1000 IU/ml
interferonogenic activity compared to the compound of the present invention (interferon; words, vs cycloferone): lower interferonogenic activity

Cc1cn([C@H]2C[C@H](N=[N+]=[N-])[C@@H](CO)O2)c(=O)[nH]c1=O [Azidothymidine, azidothymidine]
Number of cells containing HIV antigen by IIFR ([2]; Day 5): 6.5%
Number of cells containing HIV antigen by IIFR ([2]; Day 7): 4.7%

CN(C)C1C(=O)C(C(N)=O)=C(O)C2(O)C(=O)C3=C(O)c4c(O)cccc4C(C)(O)C3CC12 (stereo not shown) [Tetracycline hydrochloride, tetracycline hydrochloride]
Effectiveness Index (C trachomatis; lung, 3 days): 1.8
Effectiveness Index (C trachomatis; lung, 7 days): 1.0
Effectiveness Index (C trachomatis; lymph nodes, 3 days): 0.9
Effectiveness Index (C trachomatis; lymph nodes, 7 days): 0.6

CCN(CC)CCOc1ccc2c(c1)C(=O)c1cc(OCCN(CC)CC)ccc1-2 [Thylorone]
Interferon titer (interferon; 1 hour): < 40 IU/ml
Interferon titer (interferon; 2 hours): < 40 IU/ml
Interferon titer (interferon; 4 hours): < 40 IU/ml
Interferon titer (interferon; 8 hours): 40 IU/ml
Interferon titer (interferon; 18 hours): 640 IU/ml
Interferon titer (interferon; 24 hours): 20 IU/ml
Interferon titer (interferon; 48 hours): < 10 IU/ml
Interferon titer (Splenocytes; 24 hr): 15
Interferon titer (Splenocytes; 48 hr): 30
Interferon titer (Splenocytes; 72 hr): 640
Interferon titer (Splenocytes; 96 hr): 320
Interferon titer (Splenocytes; 120 hr): 15
Interferon titer (Splenocytes; 144 hr): < 5
Interferon titer ([3]; 24 hr): 40
Interferon titer ([3]; 48 hr): 80
Interferon titer ([3]; 72 hr): 320
Interferon titer ([3]; 96 hr): 80
Interferon titer ([3]; 120 hr): 10
Interferon titer ([3]; 144 hr): < 10
Interferon titer (T-lymphocytes; 24 hr): 15
Interferon titer (T-lymphocytes; 48 hr): 60
Interferon titer (T-lymphocytes; 72 hr): 5000
Interferon titer (T-lymphocytes; 96 hr): 3600
Interferon titer (T-lymphocytes; 120 hr): 960
Interferon titer (T-lymphocytes; 144 hr): 5
Interferon titer (B-lymphocytes; 24 hr): 15
Interferon titer (B-lymphocytes; 48 hr): 30
Interferon titer (B-lymphocytes; 72 hr): 320
Interferon titer (B-lymphocytes; 96 hr): < 10
Interferon titer (B-lymphocytes; 120 hr): < 10
Interferon titer (B-lymphocytes; 144 hr): 5
Hepatocytic Cohesion (hepatocytes (liver); Intraperitoneal, 10.0 mg/kg, P >0.05): 0.053 ± 0.008 mg/1 cell
hepatocytic cohesion indices compared to controls (hepatocytes (liver); words, vs controls): the same as in the controls
